From patent publication US9617310B2 (priority 2013, dated 2017)

Legend:
[1] = test system: genotype 3a stable HCV replicon (S52) in Huh-7-derived cells; assay: Stable subgenomic HCV replicon, genotype 3a, Renilla luciferase; type: cell-based; conditions: Hepatitis C virus, 72 h, read-out: EC50 3A RLUC
Experimental: (§1) Antiviral potency (EC50) was determined in both stable subgenomic HCV replicon cell lines and transient-transfected HCV replicon cells. The term half maximal effective concentration (EC50) refers to the concentration of a drug which induces a response halfway between the baseline and maximum after the exposure time specified below.
(§2) Stable subgenomic HCV replicons for genotype 1a, 1b, 2a, 3a, and 4a were established in Huh-7-derived cells as described by Lohmann et al (Lohmann V, Korner F, Koch J, et al Replication of subgenomic hepatitis C virus RNAs in a hepatoma cell line. Science 1999; 285:119-3). Each stable cell line contains a bicistronic HCV replicon that encodes a humanized Renilla luciferase (hRLuc) reporter gene fused to a selectable neomycin-resistance gene, followed by an EMCV IRES and the NS3-NS5B coding region of HCV. […] Luciferase activity was measured as a marker for intracellular HCV replication levels.
(§3) The genotype 1a stable replicon was derived from the H77 HCV strain and contained adaptive mutations P1496L and S2204I. The genotype 1b stable replicon was derived from the Con1 HCV strain and contained adaptive mutations E1202G, T1280I, and K1846T. […] The genotype 3a stable replicon was derived from the S52 HCV strain and contained adaptive mutations P1121 L, A1198T and S2210I (equivalent to S2204I in genotype 1). The genotype 4a stable replicon was derived from the ED43 HCV strain and contained adaptive mutations Q1691R and S2204I. All replicon cell lines were propagated in Huh-7-derived cells and maintained in Dulbecco's modified Eagle's Medium (DMEM) supplemented with 10% fetal bovine serum (FBS) and 0.5 mg/ml G418.
(§4) To perform EC50 assays, cells from each HCV replicon were dispensed into 384-well plates. Compounds were dissolved in DMSO at a concentration of 10 mM and diluted in DMSO using an automated pipetting instrument. Three-fold serially diluted compounds were directly added to the cells using an automated instrument. DMSO was used as a negative (solvent; no inhibition) control, and a combination of three HCV inhibitors including a protease inhibitor; an NS5A inhibitor and a nucleoside inhibitor was used at concentrations >100×EC50 as a positive control (100% inhibition). Seventy-two hours later, cells were lysed and Renilla luciferase activity were quantified as recommended by the manufacturer (Promega-Madison, Wis.). Non-linear regression was performed to calculate […], values.

[2] = test system: genotype 3a transient HCV replicon (S52) in Huh-7-derived cells; assay: Transient-transfected HCV replicon, genotype 3a wild type; type: cell-based; conditions: Hepatitis C virus; transient-transfected replicon genotype 3a wild type, 72 h; read-out: EC50 3A WT
NS3 genotype 1b protease = molecular target: T1, NS3 genotype 1b protease (Hepatitis C virus genotype 1b, UniProt Q9WMX2, E1202G); assay: Ki determination, NS3 protease genotype 1b (fluorogenic depsipeptide substrate); type: biochemical; conditions: NS3 protease domain genotype 1b, NS4A peptide
T1 construct: Purified NS3 protease domain (amino acids 1-181) of the genotype 1b and 3a virus were generated as above; K3 hexahistidine tag (N); rTEV protease cleavage site (N); made in house; host or cells: E. coli BL21AI
T1 sequence (Q9WMX2 1027-1207 E1202G, other chains not shown): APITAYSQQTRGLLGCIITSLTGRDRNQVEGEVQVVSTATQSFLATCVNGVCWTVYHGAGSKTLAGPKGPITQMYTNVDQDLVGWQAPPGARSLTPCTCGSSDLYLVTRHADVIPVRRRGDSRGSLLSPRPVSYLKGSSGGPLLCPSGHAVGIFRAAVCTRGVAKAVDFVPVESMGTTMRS
Text: Ki Determination for Genotypes 1b and 3a NS3 Protease.
Purified NS3 protease domain (amino acids 1-181) of the genotype 1b and 3a virus were generated as above. The internally quenched fluorogenic depsipeptide substrate Ac-DED(Edans)-EEAbuψ[COO]ASK(Dabcyl)-NH2 and a synthetic peptide containing the hydrophobic core residues of the NS4A protein cofactor ([…]; NS4A peptide) were obtained from Anaspec, Inc. (San Jose, Calif.). Other chemicals and biochemicals were of reagent grade or better and were purchased from standard suppliers.
Reactions were run at room temperature in buffer consisting of 50 mM HEPES, 40% glycerol, 0.05% Triton X-100, 10 mM DTT, and 10% DMSO. The final assay solutions contained 50 pM NS3 genotype 1b protease or 200 pM genotype 3a protease, 20 μM NS4A peptide, and 4 μM substrate (genotype 1b) or 2 μM substrate (genotype 3a). Inhibitor concentrations varied from 100 nM to 5 pM in 3-fold dilutions, and no-inhibitor controls were included.
Compound dilutions were made in DMSO at 20× final concentration. Reaction mixtures were prepared in 96-well assay plates. A solution of enzyme and NS4A peptide in assay buffer (25 μL volume with both reagents at 4× final concentration) was mixed with 45 μL assay buffer and 5 μL of either inhibitor or DMSO, and pre-incubated at room temperature for 1 hour. The reaction was started by addition of 25 μL substrate solution at 4× final concentration. Plates were mixed vigorously for 5-10 seconds and reactions were allowed to proceed for 90 minutes. Fluorescence was measured every 30 s between 90 and 120 minutes reaction time using a Tecan InfiniTe M1000 or PerkinElmer Envision multimode plate reader with an excitation wavelength of 340 nm and an emission wavelength of 490 nm.
Rates were calculated from the progress curves at steady state, in the time frame of 90-120 minutes after addition of substrate. To determine the Ki, rates were plotted as a function of inhibitor concentration, and the data were fit with equation 1 (Morrison, J. F., Biochimica et Biophysica Acta 1969, 185, 269-286) to calculate Ki^app using GraphPad Prism 5. Active fraction of enzyme was determined by active site titration with known potent inhibitors. Ki was calculated from Ki^app/(1+[[S]/Km]).

[3] = test system: genotype 2a stable HCV replicon (JFH-1) in Huh-7-derived cells; assay: Stable subgenomic HCV replicon, genotype 2a, Renilla luciferase; type: cell-based; conditions: Hepatitis C virus, stable replicon genotype 2a, 72 h, read-out: EC50 2A RLUC
Experimental: as §1, §2, §3, §4

[4] = test system: genotype 1b wild-type transient HCV replicon in Huh-7-derived cells; assay: Transient-transfected HCV replicon, genotype 1b wild type; type: cell-based; conditions: Hepatitis C virus; transient-transfected replicon genotype 1b wild type, 72 h; read-out: EC50 1B WT
[5] = test system: genotype 4a stable HCV replicon (ED43) in Huh-7-derived cells; assay: Stable subgenomic HCV replicon, genotype 4a, Renilla luciferase; type: cell-based; conditions: Hepatitis C virus, 72 h, read-out: EC50 4A RLUC
Experimental: as §1, §2, §3, §4

[6] = test system: NS3/4a protease inhibitor resistant variant D168A in genotype 1b transient HCV replicon; assay: Transient-transfected HCV replicon, genotype 1b D168A; type: cell-based; conditions: Hepatitis C virus, 72 h, read-out: EC50 1B D168A

| SMILES | EC50 [1] [nM] | EC50 [2] [nM] | Ki (NS3 genotype 1b protease) [nM] | EC50 [3] [nM] | EC50 [4] [nM] | EC50 [5] [nM] | EC50 [6] [nM] |
| --- | --- | --- | --- | --- | --- | --- | --- |
| COc1ccc2nc3c(nc2c1)O[C@@H]1C[C@@H](C(=O)N[C@]2(C(=O)NS(=O)(=O)C4CC4)C[C@H]2C(F)F)N(C1)C(=O)[C@H](C(C)(C)C)NC(=O)O[C@@H]1C[C@@H]2C[C@@H]2[C@H]1CCCCC3(F)F (racemic) [Example 9, (1aS,2aR,6S,9S,11R,23aR,23bS)-6-tert-butyl-N-[(1R,2R)-1-[(cyclopropylsulfonyl)carbamoyl]-2-(difluoromethyl)cyclopropyl]-19,19-difluoro-15-methoxy-4,7-dioxo-1a,2,2a,4,5,6,7,10,11,19,20,21,22,23,23a,23b-hexadecahydro-1H,9H-8,11-methanocyclopropa[4′,5′]cyclopenta[1′,2′:18,19][1,10,3,6]dioxadiazacyclononadecino[11,12-b]quinoxaline-9-carboxamide] | 6.6 | 2.5 | 0.02 | 2.3 | 0.71 | 1.4 | 1.1 |
| CC(C)(C)[C@@H]1NC(=O)O[C@@H]2C[C@@H]3C[C@@H]3[C@H]2CCCCC(F)(F)c2nc3cc(F)c(F)cc3nc2O[C@@H]2C[C@@H](C(=O)N[C@]3(C(=O)NS(=O)(=O)C4CC4)C[C@H]3C(F)F)N(C2)C1=O (racemic) [Example 15, (1aS,2aR,6S,9S,11R,23aR,23bS)-6-tert-butyl-N-[(1R,2R)-1-[(cyclopropylsulfonyl)carbamoyl]-2-(difluoromethyl)cyclopropyl]-15,16,19,19-tetrafluoro-4,7-dioxo-1a,2,2a,4,5,6,7,10,11,19,20,21,22,23,23a,23b-hexadecahydro-1H,9H-8,11-methanocyclopropa[4′,5′]cyclopenta[1′,2′:18,19][1,10,3,6]dioxadiazacyclononadecino[11,12-b]quinoxaline-9-carboxamide] | 30 | 11 | 0.03 | 3.3 | 1.3 | 2.6 | 4.7 |
| COc1ccc2nc3c(nc2c1)O[C@@H]1C[C@@H](C(=O)N[C@]2(C(=O)NS(=O)(=O)C4CC4)C[C@H]2C(F)F)N(C1)C(=O)[C@H](C(C)(C)C)NC(=O)O[C@@H]1C[C@@H]2C[C@@H]2[C@H]1CCCCC3 [Example 1, (1aS,2aR,6S,9S,11R,23aR,23bS)-6-tert-butyl-N-[(1R,2R)-1-[(cyclopropylsulfonyl)carbamoyl]-2-(difluoromethyl)cyclopropyl]-15-methoxy-4,7-dioxo-1a,2,2a,4,5,6,7,10,11,19,20,21,22,23,23a,23b-hexadecahydro-1H,9H-8,11-methanocyclopropa[4′,5′]cyclopenta[1′,2′:18,19][1,10,3,6]dioxadiazacyclononadecino[11,12-b]quinoxaline-9-carboxamide] | 23 | 7.1 | 0.02 | 2.5 | 0.61 | 1 | 4.6 |
| COc1ccc2nc3c(nc2c1)O[C@@H]1C[C@@H](C(=O)N[C@]2(C(=O)NS(=O)(=O)C4(C)CC4)C[C@H]2C(F)F)N(C1)C(=O)[C@H](C(C)(C)C)NC(=O)O[C@@H]1C[C@@H]2C[C@@H]2[C@H]1CCCCC3 [Example 2, (1aS,2aR,6S,9S,11R,23aR,23bS)-6-tert-butyl-N-[(1R,2R)-2-(difluoromethyl)-1-{[(1-methylcyclopropyl)sulfonyl]carbamoyl}cyclopropyl]-15-methoxy-4,7-dioxo-1a,2,2a,4,5,6,7,10,11,19,20,21,22,23,23a,23b-hexadecahydro-1H,9H-8,11-methanocyclopropa[4′,5′]cyclopenta[1′,2′18,19][1,10,3,6]dioxadiazacyclononadecino[11,12-b]quinoxaline-9-carboxamide] | 17 | 5.1 | 0.02 | 1.82 | 0.74 | 1.2 | 3.2 |
| COc1ccc2nc3c(nc2c1)O[C@@H]1C[C@@H](C(=O)N[C@]2(C(=O)NS(=O)(=O)C4CC4)C[C@H]2CC(F)F)N(C1)C(=O)[C@H](C(C)(C)C)NC(=O)O[C@@H]1C[C@@H]2C[C@@H]2[C@H]1CCCCC3 [Example 3, (1aS,2aR,6S,9S,11R,23aR,23bS)-6-tert-butyl-N-[(1R,2S)-1-[(cyclopropylsulfonyl)carbamoyl]-2-(2,2-difluoroethyl)cyclopropyl]-15-methoxy-4,7-dioxo-1a,2,2a,4,5,6,7,10,11,19,20,21,22,23,23a,23b-hexadecahydro-1H,9H-8,11-methanocyclopropa[4′,5′]cyclopenta[1′,2′:18,19][1,10,3,6]dioxadiazacyclononadecino[11,12-b]quinoxaline-9-carboxamide] | 194 | 67 | 0.03 | 15 | 2.9 | 3.4 | 50 |
| COc1ccc2nc3c(nc2c1)O[C@@H]1C[C@@H](C(=O)N[C@]2(C(=O)NS(=O)(=O)C4CC4)C[C@H]2C(F)F)N(C1)C(=O)[C@H](C(C)(C)C)NC(=O)O[C@@H]1[C@H]2CC[C@H](C2)[C@H]1CCCCC3 [Example 4, (1R,4S,4aR,8S,11S,13R,25aR)-8-tert-butyl-N-[(1R,2R)-1-[(cyclopropylsulfonyl)carbamoyl]-2-(difluoromethyl)cyclopropyl]-17-methoxy-6,9-dioxo-2,3,4,4a,6,7,8,9,12,13,21,22,23,24,25,25a-hexadecahydro-1H,11H-1, 4:10,13-dimethanoquinoxalino[2,3-k][1,10,3,6]benzodioxadiazacyclononadecine-11-carboxamide] | 429 | 63 | 0.02 | 18 | 1.2 | 3.1 | 112 |
